Laboratory results as given in patent publication US20080064735A1, “Method for controlling harmful organisms in crops of useful plants” (priority 2001, published 2008).

Tested on: Plutella xylostella
Test: Plutella xylostella greenhouse spray test on cauliflower and Bt cauliflower (cry9C)
Format: in vivo
Description: Seven-week-old cauliflower plants (ordinary cauliflower, variety: Marner Allfrüh) and Bt cauliflower ([…], contains cry9C) were sprayed with the test insecticides with the aid of a track sprayer (200 l/ha). After drying, each of the plants was infected with 5 L2 larvae and 5 L3 larvae of Plutella xylostella. After 2, 4 and 7 days (DAA), feeding damage and mortality were scored. The test was carried out in a greenhouse at 23° C. and a relative atmospheric humidity of 60%.

[1] = 3 g active substance/ha, 2 DAA, Bt cauliflower
[2] = 3 g active substance/ha, 2 DAA, cauliflower
[3] = 3 g active substance/ha, 4 DAA, Bt cauliflower
[4] = 3 g active substance/ha, 4 DAA, cauliflower
[5] = 3 g active substance/ha, 7 DAA, Bt cauliflower
[6] = 3 g active substance/ha, 7 DAA, cauliflower
[7] = 10 g active substance/ha, 2 DAA, Bt cauliflower
[8] = 10 g active substance/ha, 2 DAA, cauliflower
[9] = 10 g active substance/ha, 4 DAA, Bt cauliflower
[10] = 10 g active substance/ha, 4 DAA, cauliflower
[11] = 10 g active substance/ha, 7 DAA, Bt cauliflower
[12] = 10 g active substance/ha, 7 DAA, cauliflower
[13] = 30 g active substance/ha, 2 DAA, Bt cauliflower
[14] = 30 g active substance/ha, 2 DAA, cauliflower
[15] = 30 g active substance/ha, 4 DAA, Bt cauliflower
[16] = 30 g active substance/ha, 4 DAA, cauliflower
[17] = 30 g active substance/ha, 7 DAA, Bt cauliflower
[18] = 30 g active substance/ha, 7 DAA, cauliflower
[19] = 100 g active substance/ha, 2 DAA, Bt cauliflower
[20] = 100 g active substance/ha, 2 DAA, cauliflower
[21] = 100 g active substance/ha, 4 DAA, Bt cauliflower
[22] = 100 g active substance/ha, 4 DAA, cauliflower
[23] = 100 g active substance/ha, 7 DAA, Bt cauliflower
[24] = 100 g active substance/ha, 7 DAA, cauliflower
[25] = 1 g active substance/ha, 2 DAA, Bt cauliflower
[26] = 1 g active substance/ha, 2 DAA, cauliflower
[27] = 1 g active substance/ha, 4 DAA, Bt cauliflower
[28] = 1 g active substance/ha, 4 DAA, cauliflower
[29] = 1 g active substance/ha, 7 DAA, Bt cauliflower
[30] = 1 g active substance/ha, 7 DAA, cauliflower

## CCc1nn(C)c(C(=O)NCc2ccc(Oc3ccc(C)cc3)cc2)c1Cl [Tolfenpyrad]
[1]
  % feeding damage: 3%
  % mortality: 10%
[2]
  % feeding damage: 10%
  % mortality: 0%
[3]
  % feeding damage: 10%
  % mortality: 30%
[4]
  % feeding damage: 10%
  % mortality: 0%
[5]
  % feeding damage: 10%
  % mortality: 50%
[6]
  % feeding damage: 10%
  % mortality: 0%
[7]
  % feeding damage: 10%
  % mortality: 0%
[8]
  % feeding damage: 10%
  % mortality: 0%
[9]
  % feeding damage: 10%
  % mortality: 50%
[10]
  % feeding damage: 10%
  % mortality: 0%
[11]
  % feeding damage: 10%
  % mortality: 50%
[12]
  % feeding damage: 10%
  % mortality: 0%
[13]
  % feeding damage: 0%
  % mortality: 60%
[14]
  % feeding damage: 10%
  % mortality: 0%
[15]
  % feeding damage: 0%
  % mortality: 100%
[16]
  % feeding damage: 10%
  % mortality: 0%
[17]
  % feeding damage: 0%
  % mortality: 100%
[18]
  % feeding damage: 10%
  % mortality: 0%
[19]
  % feeding damage: 10%
  % mortality: 20%
[20]
  % feeding damage: 5%
  % mortality: 0%
[21]
  % feeding damage: 10%
  % mortality: 100%
[22]
  % feeding damage: 5%
  % mortality: 20%
[23]
  % feeding damage: 10%
  % mortality: 100%
[24]
  % feeding damage: 5%
  % mortality: 0%

## CS/C(C)=N\OC(=O)N(C)SN(C)C(=O)O/N=C(\C)SC [Thiodicarb]
[25]
  % feeding damage: 0%
  % mortality: 100%
[26]
  % feeding damage: 10%
  % mortality: 0%
[27]
  % feeding damage: 0%
  % mortality: 100%
[28]
  % feeding damage: 10%
  % mortality: 0%
[29]
  % feeding damage: 0%
  % mortality: 100%
[30]
  % feeding damage: 15%
  % mortality: 0%
[1]
  % feeding damage: 0%
  % mortality: 100%
[2]
  % feeding damage: 10%
  % mortality: 0%
[3]
  % feeding damage: 0%
  % mortality: 100%
[4]
  % feeding damage: 10%
  % mortality: 0%
[5]
  % feeding damage: 0%
  % mortality: 100%
[6]
  % feeding damage: 15%
  % mortality: 0%
[7]
  % feeding damage: 0%
  % mortality: 90%
[8]
  % feeding damage: 10%
  % mortality: 0%
[9]
  % feeding damage: 0%
  % mortality: 100%
[10]
  % feeding damage: 10%
  % mortality: 0%
[11]
  % feeding damage: 0%
  % mortality: 100%
[12]
  % feeding damage: 15%
  % mortality: 0%
[13]
  % feeding damage: 0%
  % mortality: 100%
[14]
  % feeding damage: 10%
  % mortality: 0%
[15]
  % feeding damage: 0%
  % mortality: 100%
[16]
  % feeding damage: 10%
  % mortality: 0%
[17]
  % feeding damage: 0%
  % mortality: 100%
[18]
  % feeding damage: 15%
  % mortality: 0%
[19]
  % feeding damage: 0%
  % mortality: 100%
[20]
  % feeding damage: 10%
  % mortality: 0%
[21]
  % feeding damage: 0%
  % mortality: 100%
[22]
  % feeding damage: 10%
  % mortality: 0%
[23]
  % feeding damage: 0%
  % mortality: 100%
[24]
  % feeding damage: 10%
  % mortality: 0%

## C/C(=N\C#N)N(C)Cc1ccc(Cl)nc1 [Acetamiprid]
[7]
  % feeding damage: 0%
  % mortality: 100%
[8]
  % feeding damage: 10%
  % mortality: 0%
[9]
  % feeding damage: 0%
  % mortality: 100%
[10]
  % feeding damage: 12%
  % mortality: 0%
[11]
  % feeding damage: 0%
  % mortality: 100%
[12]
  % feeding damage: 15%
  % mortality: 0%
[13]
  % feeding damage: 0%
  % mortality: 100%
[14]
  % feeding damage: 10%
  % mortality: 0%
[15]
  % feeding damage: 0%
  % mortality: 100%
[16]
  % feeding damage: 12%
  % mortality: 0%
[17]
  % feeding damage: 0%
  % mortality: 100%
[18]
  % feeding damage: 15%
  % mortality: 0%

## N#Cc1nn(-c2c(Cl)cc(C(F)(F)F)cc2Cl)c(N)c1[S+]([O-])C(F)(F)F (stereo not drawn) [Fipronil]
[25]
  % feeding damage: 0%
  % mortality: 70%
[26]
  % feeding damage: 10%
  % mortality: 0%
[27]
  % feeding damage: 0%
  % mortality: 100%
[28]
  % feeding damage: 10%
  % mortality: 0%
[29]
  % feeding damage: 0%
  % mortality: 100%
[30]
  % feeding damage: 12%
  % mortality: 0%
[1]
  % feeding damage: 0%
  % mortality: 100%
[2]
  % feeding damage: 10%
  % mortality: 20%
[3]
  % feeding damage: 0%
  % mortality: 100%
[4]
  % feeding damage: 10%
  % mortality: 20%
[5]
  % feeding damage: 0%
  % mortality: 100%
[6]
  % feeding damage: 12%
  % mortality: 20%
[7]
  % feeding damage: 0%
  % mortality: 100%
[8]
  % feeding damage: 8%
  % mortality: 20%
[9]
  % feeding damage: 0%
  % mortality: 100%
[10]
  % feeding damage: 8%
  % mortality: 20%
[11]
  % feeding damage: 0%
  % mortality: 100%
[12]
  % feeding damage: 10%
  % mortality: 50%
[13]
  % feeding damage: 0%
  % mortality: 100%
[14]
  % feeding damage: 4%
  % mortality: 70%
[15]
  % feeding damage: 0%
  % mortality: 100%
[16]
  % feeding damage: 5%
  % mortality: 100%
[17]
  % feeding damage: 0%
  % mortality: 100%
[18]
  % feeding damage: 5%
  % mortality: 100%
[19]
  % feeding damage: 0%
  % mortality: 100%
[20]
  % feeding damage: 1%
  % mortality: 100%
[21]
  % feeding damage: 0%
  % mortality: 100%
[22]
  % feeding damage: 1%
  % mortality: 100%
[23]
  % feeding damage: 0%
  % mortality: 100%
[24]
  % feeding damage: 1%
  % mortality: 100%
